This is an account of results in US11524968B2, “Heterocyclic compound as a protein kinase inhibitor” (HK inno.N Corporation, priority 2017, dated 2022).

This test has as its target JAK1 (Homo sapiens (Human), UniProt P23458). Description: Analysis of JAK1 activity inhibition ability (ADP-Glo Kinase Assay). Particulars: JAK1 enzyme, ADP-Glo luminescence, ATP 250 uM, IRS-itide substrate, 30° C. 40 minutes; read-out: IC50. It is filed as biochemical. Put shortly: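 JAK1 enzyme, IRS-itide substrate (40 ng/mL) and 250 uM ATP, both as prepared in kinase buffer (Tris-HCl pH 7.5, MgCl2, BSA, DTT), reacted with compound 40 min at 30 °C. ADP formed was detected by ADP-Glo luminescence; IC50 is the concentration giving 50% inhibition versus control.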

JAK1, sequence (P23458 whole entry): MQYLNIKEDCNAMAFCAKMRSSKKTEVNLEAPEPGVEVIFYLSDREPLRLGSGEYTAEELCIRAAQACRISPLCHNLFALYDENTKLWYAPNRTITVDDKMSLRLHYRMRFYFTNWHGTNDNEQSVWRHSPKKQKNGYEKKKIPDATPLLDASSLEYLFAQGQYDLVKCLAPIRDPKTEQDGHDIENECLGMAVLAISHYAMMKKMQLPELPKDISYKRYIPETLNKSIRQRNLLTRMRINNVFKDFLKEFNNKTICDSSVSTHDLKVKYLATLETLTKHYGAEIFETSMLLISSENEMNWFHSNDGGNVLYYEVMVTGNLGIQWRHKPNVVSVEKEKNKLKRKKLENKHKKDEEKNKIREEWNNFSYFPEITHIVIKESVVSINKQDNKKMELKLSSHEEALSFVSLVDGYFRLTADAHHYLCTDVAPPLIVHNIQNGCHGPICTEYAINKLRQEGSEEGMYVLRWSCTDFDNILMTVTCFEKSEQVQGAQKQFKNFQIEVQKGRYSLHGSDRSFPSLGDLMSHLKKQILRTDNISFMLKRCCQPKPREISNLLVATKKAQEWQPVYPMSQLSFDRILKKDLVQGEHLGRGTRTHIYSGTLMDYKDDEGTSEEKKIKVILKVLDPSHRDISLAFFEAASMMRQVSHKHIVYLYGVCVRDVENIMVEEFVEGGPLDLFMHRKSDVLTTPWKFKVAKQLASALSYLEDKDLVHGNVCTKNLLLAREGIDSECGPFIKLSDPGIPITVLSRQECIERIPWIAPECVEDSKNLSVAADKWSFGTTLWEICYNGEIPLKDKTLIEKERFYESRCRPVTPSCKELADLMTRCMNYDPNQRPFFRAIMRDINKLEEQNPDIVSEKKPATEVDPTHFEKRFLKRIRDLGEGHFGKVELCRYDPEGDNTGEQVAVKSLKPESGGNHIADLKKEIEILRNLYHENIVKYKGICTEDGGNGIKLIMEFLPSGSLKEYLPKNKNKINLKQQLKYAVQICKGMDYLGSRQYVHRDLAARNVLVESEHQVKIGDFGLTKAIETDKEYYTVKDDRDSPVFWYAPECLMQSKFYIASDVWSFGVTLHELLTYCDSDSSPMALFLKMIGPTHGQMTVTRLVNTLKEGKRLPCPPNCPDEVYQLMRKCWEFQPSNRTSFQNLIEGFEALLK

For `C=CCS(=O)(=O)Oc1ccc(-c2cc(NC(=O)C3CC3)nc3[nH]ccc23)cc1` [Example 636, 4-(6-(cyclopropanecarboxamido)-1H-pyrrolo[2,3-b]pyridin-4-yl)phenyl prop-2-ene-1-sulfonate], the IC50 is < 20 nM.

With `O=C(Nc1cc(-c2ccc(OS(=O)(=O)CC3CCCCC3)cc2)c2cc[nH]c2n1)C1CC1` [Example 637, 4-(6-(cyclopropanecarboxamido)-1H-pyrrolo[2,3-b]pyridin-4-yl)phenyl cyclohexylmethanesulfonate], the IC50 is > 200 nM.

Take `O=C(Nc1cc(-c2ccc(OS(=O)(=O)CC3CCOC3)cc2)c2cc[nH]c2n1)C1CC1` (stereo not drawn) [Example 638, 4-(6-(cyclopropanecarboxamido)-1H-pyrrolo[2,3-b]pyridin-4-yl)phenyl (tetrahydrofuran-3-yl)methanesulfonate]: the IC50 lay in the range of 20 to 200 nM.

As to `N#CCCCS(=O)(=O)Oc1ccc(-c2cc(NC(=O)C3CC3)nc3[nH]ccc23)cc1` [Example 639, 4-(6-(cyclopropanecarboxamido)-1H-pyrrolo[2,3-b]pyridin-4-yl)phenyl 3-cyanopropane-1-sulfonate], the half-maximal inhibitory concentration (IC50) lay in the range of 20 to 200 nM.

`N#CCCCn1ccc2c(-c3ccc(OS(=O)(=O)CCCC#N)cc3)cc(NC(=O)C3CC3)nc21` [Example 640, 4-(1-(3-cyanopropyl)-6-(cyclopropanecarboxamido)-1H-pyrrolo[2,3-b]pyridin-4-yl)phenyl 3-cyanopropane-1-sulfonate]: the 50% inhibitory concentration (IC50) was > 200 nM.

Turning to `O=C(Nc1cc(-c2ccc(OCc3ccc(F)cc3)cc2)c2cc[nH]c2n1)C1CC1` [Example 641, N-(4-(4-((4-fluorobenzyl)oxy)phenyl)-1H-pyrrolo[2,3-b]pyridin-6-yl)cyclopropanecarboxamide], the IC50 was > 200 nM.

In the case of `O=C(Nc1cc(-c2ccc(OCCN3CCOCC3)cc2)c2cc[nH]c2n1)C1CC1` [Example 642, N-(4-(4-(2-morpholinoethoxy)phenyl)-1H-pyrrolo[2,3-b]pyridin-6-yl)cyclopropanecarboxamide], the IC50 fell in the range of 20 to 200 nM.

On to `CCCCOc1ccc(-c2cc(NC(=O)C3CC3)nc3[nH]ccc23)cc1` [Example 643, N-(4-(4-butoxyphenyl)-1H-pyrrolo[2,3-b]pyridin-6-yl)cyclopropanecarboxamide], for which the 50% inhibitory concentration (IC50) was > 200 nM.

For `N#Cc1ccc(COc2ccc(-c3nc(NC(=O)C4CC4)nc4[nH]cnc34)cc2)cn1` [Example 644, N-(6-(4-((6-cyanopyridin-3-yl)methoxy)phenyl)-9H-purin-2-yl)cyclopropanecarboxamide], the IC50 is > 200 nM.

Consider `CCS(=O)(=O)NC1CCC(c2cc(NC(=O)C3CC3)nc3[nH]ccc23)CC1` (stereo not drawn) [Example 645, N-(4-(4-(ethylsulfonamido)cyclohexyl)-1H-pyrrolo[2,3-b]pyridin-6-yl)cyclopropanecarboxamide], for which the half-inhibitory concentration (IC50) is 20 to 200 nM.

Consider `CCS(=O)(=O)N1C2CCC1CC(c1cc(NC(=O)C3CC3)nc3[nH]ccc13)C2` (stereo not drawn) [Example 646, N-(4-(8-(ethylsulfonyl)-8-azabicyclo[3.2.1]octan-3-yl)-1H-pyrrolo[2,3-b]pyridin-6-yl)cyclopropanecarboxamide], for which the half-inhibitory concentration (IC50) is > 200 nM.

On to `O=C(Nc1cc(C2CC3CCC(C2)N3S(=O)(=O)C2CC2)c2cc[nH]c2n1)C1CC1` (stereo not drawn) [Example 647, N-(4-(8-(cyclopropylsulfonyl)-8-azabicyclo[3.2.1]octan-3-yl)-1H-pyrrolo[2,3-b]pyridin-6-yl)cyclopropanecarboxamide], for which the IC50 was > 200 nM.

For `O=C(Nc1cc(C2CC3CCC(C2)N3S(=O)(=O)CCCF)c2cc[nH]c2n1)C1CC1` (stereo not drawn) [Example 648, N-(4-(8-((3-fluoropropyl)sulfonyl)-8-azabicyclo[3.2.1]octan-3-yl)-1H-pyrrolo[2,3-b]pyridin-6-yl)cyclopropanecarboxamide], the IC50 was > 200 nM.

`O=C(Nc1cc(C2CC3CCC(C2)N3S(=O)(=O)c2ccc(F)c(F)c2)c2cc[nH]c2n1)C1CC1` (stereo not drawn) [Example 649, N-(4-(8-((3,4-difluorophenyl)sulfonyl)-8-azabicyclo[3.2.1]octan-3-yl)-1H-pyrrolo[2,3-b]pyridin-6-yl)cyclopropanecarboxamide]: the half-inhibitory concentration (IC50) is > 200 nM.

As to `O=C(Nc1cc(C2CC3CCC(C2)N3C(=O)C2CC2)c2cc[nH]c2n1)C1CC1` (stereo not drawn) [Example 650, N-(4-(8-(cyclopropanecarbonyl)-8-azabicyclo[3.2.1]octan-3-yl)-1H-pyrrolo[2,3-b]pyridin-6-yl)cyclopropanecarboxamide], the IC50 is > 200 nM.

For the compound `CCCCC(=O)N1C2CCC1CC(c1cc(NC(=O)C3CC3)nc3[nH]ccc13)C2` (stereo not drawn) [Example 651, N-(4-(8-pentanoyl-8-azabicyclo[3.2.1]octan-3-yl)-1H-pyrrolo[2,3-b]pyridin-6-yl)cyclopropanecarboxamide], the half-maximal inhibitory concentration (IC50) is > 200 nM.

In the case of `N#CCC(=O)N1CCC(c2cc(NC(=O)C3CC3)nc3[nH]ccc23)CC1` [Example 652, N-(4-(1-(2-cyanoacetyl)piperidin-4-yl)-1H-pyrrolo[2,3-b]pyridin-6-yl)cyclopropanecarboxamide], the IC50 fell in the range of 20 to 200 nM.

Turning to `CCCCNC(=O)N1CCC(c2cc(NC(=O)C3CC3)nc3[nH]ccc23)CC1` [Example 653, N-butyl-4-(6-(cyclopropanecarboxamido)-1H-pyrrolo[2,3-b]pyridin-4-yl)piperidine-1-carboxamide], the IC50 is > 200 nM.

Consider `O=C(Nc1cc(C2CCN(C(=O)NCC(F)(F)F)CC2)c2cc[nH]c2n1)C1CC1` [Example 654, 4-(6-(cyclopropanecarboxamido)-1H-pyrrolo[2,3-b]pyridin-4-yl)-N-(2,2,2-trifluoroethyl)piperidine-1-carboxamide], for which the concentration for half-maximal inhibition (IC50) is > 200 nM.

Turning to `CC(C)(C)OC(=O)N1CCC(c2cc(NC(=O)C3CC3)nc3[nH]ccc23)C(O)C1` (stereo not drawn) [Example 655, tert-butyl 4-(6-(cyclopropanecarboxamido)-1H-pyrrolo[2,3-b]pyridin-4-yl)-3-hydroxypiperidine-1-carboxylate], the 50% inhibitory concentration (IC50) is > 200 nM.

As to `CC(C)(C)OC(=O)N1CCC(c2cc(NC(=O)C3CC3)nc3[nH]ccc23)C(F)C1` (stereo not drawn) [Example 656, tert-butyl 4-(6-(cyclopropanecarboxamido)-1H-pyrrolo[2,3-b]pyridin-4-yl)-3-fluoropiperidine-1-carboxylate], the IC50 is > 200 nM.

`CCNC(=S)N1C2CCC1CC(c1cc(NC(=O)C3CC3)nc3[nH]ccc13)C2` (stereo not drawn) [Example 657, N-(4-(8-(ethylcarbamothioyl)-8-azabicyclo[3.2.1]octan-3-yl)-1H-pyrrolo[2,3-b]pyridin-6-yl)cyclopropanecarboxamide]: the half-inhibitory concentration (IC50) lay in the range of 20 to 200 nM.

As for `CCNC(=S)N1CCC(c2cc(NC(=O)C3CC3)nc3[nH]ccc23)CC1` [Example 658, N-(4-(1-(ethylcarbamothioyl)piperidin-4-yl)-1H-pyrrolo[2,3-b]pyridin-6-yl)cyclopropanecarboxamide], the concentration for half-maximal inhibition (IC50) is > 200 nM.

Regarding `CCCCNC(=S)N1CCC(c2cc(NC(=O)C3CC3)nc3[nH]ccc23)CC1` [Example 659, N-(4-(1-(butylcarbamothioyl)piperidin-4-yl)-1H-pyrrolo[2,3-b]pyridin-6-yl)cyclopropanecarboxamide], the IC50 is > 200 nM.

In the case of `CS(=O)(=O)N1CCN(c2cc(NC(=O)C3CC3)nc3[nH]ccc23)CC1` [Example 660, N-(4-(4-(methylsulfonyl)piperazin-1-yl)-1H-pyrrolo[2,3-b]pyridin-6-yl)cyclopropanecarboxamide], the IC50 was > 200 nM.

Turning to `N#CC1(CS(=O)(=O)N2CCN(c3cc(NC(=O)C4CC4)nc4[nH]ccc34)CC2)CC1` [Example 662, N-(4-(4-(((1-cyanocyclopropyl)methyl)sulfonyl)piperazin-1-yl)-1H-pyrrolo[2,3-b]pyridin-6-yl)cyclopropanecarboxamide], the IC50 is > 200 nM.

Regarding `O=C(Nc1cc(N2CCN(S(=O)(=O)CCCF)CC2)c2cc[nH]c2n1)C1CC1` [Example 663, N-(4-(4-((3-fluoropropyl)sulfonyl)piperazin-1-yl)-1H-pyrrolo[2,3-b]pyridin-6-yl)cyclopropanecarboxamide], the IC50 was > 200 nM.

Take `N#CCCCS(=O)(=O)N1C2CCC1CN(c1cc(NC(=O)C3CC3)nc3[nH]ccc13)C2` [Example 664, N-(4-(8-((3-cyanopropyl)sulfonyl)-3,8-diazabicyclo[3.2.1]octan-3-yl)-1H-pyrrolo[2,3-b]pyridin-6-yl)cyclopropanecarboxamide]: the IC50 is 20 to 200 nM.

As for `N#CCC1(CS(=O)(=O)N2C3CCC2CN(c2cc(NC(=O)C4CC4)nc4[nH]ccc24)C3)CC1` [Example 665, N-(4-(8-(((1-(cyanomethyl)cyclopropyl)methyl)sulfonyl)-3,8-diazabicyclo[3.2.1]octan-3-yl)-1H-pyrrolo[2,3-b]pyridin-6-yl)cyclopropanecarboxamide], the IC50 is 20 to 200 nM.

For the compound `O=C(Nc1cc(N2CC3CCC(C2)N3S(=O)(=O)CCCC(F)(F)F)c2cc[nH]c2n1)C1CC1` [Example 666, N-(4-(8-((4,4,4-trifluorobutyl)sulfonyl)-3,8-diazabicyclo[3.2.1]octan-3-yl)-1H-pyrrolo[2,3-b]pyridin-6-yl)cyclopropanecarboxamide], the IC50 is > 200 nM.

On to `N#CC1(CS(=O)(=O)N2C3CCC2CN(c2cc(NC(=O)C4CC4)nc4[nH]ccc24)C3)CC1` [Example 667, N-(4-(8-(((1-cyanocyclopropyl)methyl)sulfonyl)-3,8-diazabicyclo[3.2.1]octan-3-yl)-1H-pyrrolo[2,3-b]pyridin-6-yl)cyclopropanecarboxamide], for which the 50% inhibitory concentration (IC50) was < 20 nM.

With `CCCS(=O)(=O)N1CCN(c2nc(NC(=O)C3CC3)nc3[nH]ccc23)CC1` [Example 668, N-(4-(4-(propylsulfonyl)piperazin-1-yl)-7H-pyrrolo[2,3-d]pyrimidin-2-yl)cyclopropanecarboxamide], the IC50 is > 200 nM.

As to `CCS(=O)(=O)N1C2CCC1CN(c1nc(NC(=O)C3CC3)nc3[nH]ccc13)C2` [Example 669, N-(4-(8-(ethylsulfonyl)-3,8-diazabicyclo[3.2.1]octan-3-yl)-7H-pyrrolo[2,3-d]pyrimidin-2-yl)cyclopropanecarboxamide], the half-maximal inhibitory concentration (IC50) was in the range of 20 to 200 nM.
